From patent US7772245B2, “Inhibitors of histone deacetylase” (Miikana Therapeutics, Inc., priority 2005, dated 2010) come the findings set out here.

The test system of one assay is HCT116 cells. In words: Whole cell cytotoxicity assay: Sulforhodamine B. It counts as cell-based. The following applies: Homo sapiens, HCT-116; 100 μM compound; 48 hours incubation with drug; Sulforhodamine B staining; read-out: % Inhibition of HCT116 cell growth @ 100 μM.
A further assay deals with HDAC. Description: In vitro fluorescent histone deacetylase assay (Biomol HDAC fluorescent activity kit, HeLa cell nuclear extract). It counts as biochemical. Particulars: 100 μM compound; HeLa cell nuclear extract as source of HDAC activity; 50 μM substrate, 10 min at room temperature. The essentials:
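HeLa nuclear extract as HDAC source with fluorogenic substrate at 50 μM final, reacting 10 min at room temperature before stop. Compounds serially diluted in assay buffer, final DMSO ≤2%; fluorescence read at ex 355 nm / em 460 nm.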

On to `Cc1ccc2c(c1)C1CCN(c3ncc(C(=O)NO)cn3)CC1N2` (stereo not drawn) [Example 67, N-hydroxy-2-(6-methyl-1,3,4,4a,9,9a-hexahydro-2H-b-carbolin-2-yl)pyrimidine-5-carboxamide], for which, in the assay with HCT116 cells, the inhibition at 100 µM was 98.2%. In addition, the “% Inhibition of HDAC @ 100 μM” value with HDAC turned out to be 99.9%.
Taken in the same sequence, the figures for `O=C(NO)c1cnc(N2CCc3c(n(CCO)c4ccccc34)C2)nc1` [Example 58, N-hydroxy-2-[9-(2-hydroxyethyl)-1,3,4,9-tetrahydro-2H-b-carbolin-2-yl]pyrimidine-5-carboxamide] were 96.3% and 97.7%.
Taken in the same sequence, the figures for `COc1cc2c(cc1OC)CN(c1ccc(C(=O)NO)cn1)CC2` [Example 5, 6-(6,7-dimethoxy-3,4-dihydroisoquinolin-2(1H)-yl)-N-hydroxynicotinamide] were 99.9% and 99.7%.
For `CS(=O)(=O)NCc1cccc(-c2ccc3[nH]c4c(c3c2)CN(c2ncc(C(=O)NO)cn2)CC4)c1` [Example 83, N-hydroxy-2-{8-[3-(N-methylsulfonamidomethyl)phenyl]-1,3,4,5-tetrahydro-2H-pyrido[4,3-b]indol-2-yl}pyrimidine-5-carboxamide], the inhibition at 100 µM with HCT116 cells came out at 94.7%. Moreover, in the assay on HDAC, the “% Inhibition of HDAC @ 100 μM” value was 99.9%.
Turning to `CN1CCN(Cc2ccc(-c3ccc4[nH]c5c(c4c3)CN(c3ncc(C(=O)NO)cn3)CC5)cc2)CC1` [Example 106, N-hydroxy-2-{8-[4-((4-methylpiperazin-1-yl)methyl)phenyl]-1,3,4,5-tetrahydro-2H-pyrido[4,3-b]indol-2-yl}pyrimidine-5-carboxamide], in the assay with HCT116 cells, the inhibition at 100 µM stood at 98.3%. The “% Inhibition of HDAC @ 100 μM” value with HDAC turned out to be 99.9%.
In the case of `C[S+]([O-])c1cccc(-c2ccc3[nH]c4c(c3c2)CN(c2ncc(C(=O)NO)cn2)CC4)c1` (stereo not drawn) [Example 79, N-hydroxy-2-{8-[3-(methylsulfinyl)phenyl]-1,3,4,5-tetrahydro-2H-pyrido[4,3-b]indol-2-yl}pyrimidine-5-carboxamide], the inhibition at 100 µM with HCT116 cells was determined as 95.7%. The “% Inhibition of HDAC @ 100 μM” value in the assay with HDAC was determined as 100%.
Taken in the same sequence, the figures for `CN1CCN(Cc2ccc(-c3ccc4[nH]c5c(c4c3)CN(c3ncc(C(=O)NO)cn3)CC5)s2)CC1` [Example 110, N-hydroxy-2-{8-[5-((4-methylpiperazin-1-yl)methyl)-thien-2-yl]-1,3,4,5-tetrahydro-2H-pyrido[4,3-b]indol-2-yl}pyrimidine-5-carboxamide] were 98.7% and 100%.
On to `Cc1cccc2c3c([nH]c12)CN(c1ncc(C(=O)NO)cn1)CC3` [Example 61, N-hydroxy-2-(8-methyl-1,3,4,9-tetrahydro-2H-b-carbolin-2-yl)pyrimidine-5-carboxamide], for which the inhibition at 100 µM with HCT116 cells amounted to 98.2%. Moreover, the “% Inhibition of HDAC @ 100 μM” value with HDAC is given as 99.9%.
On to `O=C(NO)c1cnc(N2CCc3[nH]c4ccccc4c3C2)nc1` [Example 12, N-hydroxy-2-(1,3,4,5-tetrahydro-2H-pyrido[4,3-b]indol-2-yl)pyrimidine-5-carboxamide], for which the inhibition at 100 µM in the assay on HCT116 cells is 98.7%. The “% Inhibition of HDAC @ 100 μM” value with HDAC is 99.9%.
Consider `Cc1ccc2c(c1)C1CN(c3ncc(C(=O)NO)cn3)CCC1N2` (stereo not drawn) [Example 75, N-hydroxy-2-(8-methyl-1,3,4,4a,5,9b-hexahydro-2H-pyrido[4,3-b]indol-2-yl)pyrimidine-5-carboxamide], for which the inhibition at 100 µM in the assay on HCT116 cells came out at 98.4%. Moreover, the “% Inhibition of HDAC @ 100 μM” value in the assay on HDAC is given as 99.9%.
Taken in the same sequence, the figures for `CC(C)c1ccc2[nH]c3c(c2c1)CN(c1ncc(C(=O)NO)cn1)CC3` [Example 38, N-hydroxy-2-{8-isopropyl-1,3,4,5-tetrahydro-2H-pyrido[4,3-b]indol-2-yl}pyrimidine-5-carboxamide] were 99.5% and 99.8%.
`CC(=O)n1c2c(c3cc(C)ccc31)CN(c1ncc(C(=O)NO)cn1)CC2` [Example 74, N-hydroxy-2-{5-acetyl-8-methyl-1,3,4,5-tetrahydro-2H-pyrido[4,3-b]indol-2-yl}pyrimidine-5-carboxamide]: the inhibition at 100 µM in the assay on HCT116 cells turned out to be 93.6%. Moreover, the “% Inhibition of HDAC @ 100 μM” value in the assay on HDAC turned out to be 99.1%.
As for `O=C(NO)c1cnc(N2CCc3[nH]c4ccc(-c5cccc(CN6CCCC6)c5)cc4c3C2)nc1` [Example 97, N-hydroxy-2-{8-[3-(pyrrolidin-1-ylmethyl)phenyl]-1,3,4,5-tetrahydro-2H-pyrido[4,3-b]indol-2-yl}pyrimidine-5-carboxamide], the inhibition at 100 µM in the assay with HCT116 cells worked out at 98.1%. The “% Inhibition of HDAC @ 100 μM” value in the assay on HDAC stood at 100%.
In the case of `O=C(NO)c1cnc(N2CCc3c([nH]c4ccccc34)C2)nc1` [Example 9, N-hydroxy-2-(1,3,4,9-tetrahydro-2H-b-carbolin-2-yl)pyrimidine-5-carboxamide], the inhibition at 100 µM in the assay on HCT116 cells is 99.3%. Further, the “% Inhibition of HDAC @ 100 μM” value in the assay with HDAC was found to be 99.9%.
Turning to `O=C(NO)c1cnc(N2CCc3[nH]c4cc(-c5ccccc5)ccc4c3C2)nc1` [Example 120, N-hydroxy-2-{7-phenyl-1,3,4,5-tetrahydro-2H-pyrido[4,3-b]indol-2-yl}pyrimidine-5-carboxamide], the inhibition at 100 µM in the assay on HCT116 cells worked out at 97.6%. The “% Inhibition of HDAC @ 100 μM” value in the assay with HDAC was found to be 99.6%.
For `O=C(NO)c1cnc(N2CCc3[nH]c4ccc(-c5ccoc5)cc4c3C2)nc1` [Example 52, N-hydroxy-2-{8-[fur-3-yl]-1,3,4,5-tetrahydro-2H-pyrido[4,3-b]indol-2-yl}pyrimidine-5-carboxamide], the inhibition at 100 µM with HCT116 cells came to 98.9%. In the assay with HDAC, the “% Inhibition of HDAC @ 100 μM” value is given as 99.7%.
`O=C(NO)c1cnc(N2CCc3[nH]c4cc(Br)ccc4c3C2)nc1` [Example 112, N-hydroxy-2-(7-bromo-1,3,4,5-tetrahydro-2H-pyrido[4,3-b]indol-2-yl)pyrimidine-5-carboxamide]: the inhibition at 100 µM with HCT116 cells was 98.7%. Also, in the assay on HDAC, the “% Inhibition of HDAC @ 100 μM” value turned out to be 99.9%.
Taken in the same sequence, the figures for `CC(C)(C)c1ccc2[nH]c3c(c2c1)CN(c1ncc(C(=O)NO)cn1)CC3` [Example 39, N-hydroxy-2-{8-tert-butyl-1,3,4,5-tetrahydro-2H-pyrido[4,3-b]indol-2-yl}pyrimidine-5-carboxamide] were 99.4% and 98.8%.
In the case of `O=C(NO)c1cnc(N2CCc3[nH]c4ccc(Br)cc4c3C2)nc1` [Example 15, 2-(8-bromo-1,3,4,5-tetrahydro-2H-pyrido[4,3-b]indol-2-yl)-N-hydroxypyrimidine-5-carboxamide], in the assay on HCT116 cells, the inhibition at 100 µM is 99%. In addition, the “% Inhibition of HDAC @ 100 μM” value with HDAC is 99.8%.
Regarding `CC(=O)Nc1cccc(-c2ccc3[nH]c4c(c3c2)CN(c2ncc(C(=O)NO)cn2)CC4)c1` [Example 87, N-hydroxy-2-{8-[3-(N-acetamido)phenyl]-1,3,4,5-tetrahydro-2H-pyrido[4,3-b]indol-2-yl}pyrimidine-5-carboxamide], the inhibition at 100 µM in the assay on HCT116 cells amounted to 83.1%. Also, the “% Inhibition of HDAC @ 100 μM” value in the assay with HDAC is recorded as 100%.
`O=C(CCc1cnc(N2CCc3c([nH]c4ccccc34)C2)nc1)NO` [Example 21, N-hydroxy-3-[2-(1,3,4,9-tetrahydro-2H-b-carbolin-2-yl)pyrimidin-5-yl]propanamide]: the inhibition at 100 µM in the assay on HCT116 cells turned out to be 94%. Besides, the “% Inhibition of HDAC @ 100 μM” value in the assay on HDAC was found to be 98.5%.
